Reference: article PMC3192011 (Journal of medicinal chemistry, 2009)
Values joined by “and” are separate entries in the source; they are usually repeats but may differ in a detail not shown here. Equal values may be shown once. “Also recorded” adds a separate entry of the source. Read-outs that look alike come from different tables or passages of the source. Each block holds one compound with its values, some of them ahead of it.

Columns and labels:
[1] = molecular target: T1, mGlu5 (Rattus norvegicus, UniProt P31424); assay: mGlu5 cell-based in vitro functional assay; conditions: for IC50/EC50 (nM): EC50: PAM, potentiation in the presence of glutamate EC20; for IC50/EC50 (nM): EC50 / IC50/EC50 (nM): IC50: average of at least three independent determinations; for IC50/EC50 (nM): IC50: NAM
[2] = molecular target: T1, mGlu5; conditions: cited from earlier work
[3] = tested on: amphetamine-induced hyperlocomotion in rats; conditions: cited from earlier work
[4] = tested on: amphetamine-induced hyperlocomotion in rats; assay: Reversal of amphetamine-induced hyperlocomotion; type: in vivo
[5] = molecular target: mGlu7 (Homo sapiens, UniProt Q14831); assay: mGlu selectivity, mGlu7; type: cell-based
[6] = molecular target: mGlu8 (Homo sapiens, UniProt O00222); assay: mGlu selectivity, mGlu8; type: cell-based
[7] = tested on: punished responding; assay: Modified Geller-Seifter conflict model; type: in vivo, rodent; conditions: 1, 3, 10, 30 mg/kg
[8] = molecular target: mGlu3 (Homo sapiens, UniProt Q14832); assay: mGlu selectivity, mGlu3; type: cell-based
[9] = molecular target: mGlu1 (Homo sapiens, UniProt Q13255); assay: mGlu selectivity, mGlu1; type: cell-based
[10] = molecular target: mGlu4 (Homo sapiens, UniProt Q14833); assay: mGlu selectivity, mGlu4; type: cell-based
[11] = molecular target: mGlu2 (Homo sapiens, UniProt Q14416); assay: mGlu selectivity, mGlu2; type: cell-based
Chain of mGlu2 (Q14416 19-872): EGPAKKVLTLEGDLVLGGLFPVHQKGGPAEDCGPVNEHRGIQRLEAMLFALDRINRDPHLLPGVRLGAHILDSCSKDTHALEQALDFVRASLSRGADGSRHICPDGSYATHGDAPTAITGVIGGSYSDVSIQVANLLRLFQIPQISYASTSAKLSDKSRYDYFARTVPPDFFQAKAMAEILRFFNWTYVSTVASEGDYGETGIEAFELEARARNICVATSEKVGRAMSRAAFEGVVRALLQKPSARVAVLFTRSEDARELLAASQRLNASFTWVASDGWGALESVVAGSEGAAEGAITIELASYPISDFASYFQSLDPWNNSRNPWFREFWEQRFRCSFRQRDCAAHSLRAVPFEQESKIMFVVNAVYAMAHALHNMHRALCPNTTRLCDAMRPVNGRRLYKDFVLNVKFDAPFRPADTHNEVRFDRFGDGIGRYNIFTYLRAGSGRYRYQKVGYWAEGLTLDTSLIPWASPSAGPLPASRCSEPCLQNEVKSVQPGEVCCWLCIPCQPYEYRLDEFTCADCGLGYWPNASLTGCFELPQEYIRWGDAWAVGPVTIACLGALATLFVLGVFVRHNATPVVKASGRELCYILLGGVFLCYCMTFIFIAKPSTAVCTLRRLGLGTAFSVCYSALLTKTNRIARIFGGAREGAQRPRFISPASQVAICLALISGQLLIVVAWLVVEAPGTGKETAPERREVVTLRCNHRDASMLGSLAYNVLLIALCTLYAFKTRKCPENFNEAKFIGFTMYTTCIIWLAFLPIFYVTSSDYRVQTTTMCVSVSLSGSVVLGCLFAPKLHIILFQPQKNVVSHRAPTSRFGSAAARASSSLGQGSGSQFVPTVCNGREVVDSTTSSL

T1 sequence (P31424 21-1203): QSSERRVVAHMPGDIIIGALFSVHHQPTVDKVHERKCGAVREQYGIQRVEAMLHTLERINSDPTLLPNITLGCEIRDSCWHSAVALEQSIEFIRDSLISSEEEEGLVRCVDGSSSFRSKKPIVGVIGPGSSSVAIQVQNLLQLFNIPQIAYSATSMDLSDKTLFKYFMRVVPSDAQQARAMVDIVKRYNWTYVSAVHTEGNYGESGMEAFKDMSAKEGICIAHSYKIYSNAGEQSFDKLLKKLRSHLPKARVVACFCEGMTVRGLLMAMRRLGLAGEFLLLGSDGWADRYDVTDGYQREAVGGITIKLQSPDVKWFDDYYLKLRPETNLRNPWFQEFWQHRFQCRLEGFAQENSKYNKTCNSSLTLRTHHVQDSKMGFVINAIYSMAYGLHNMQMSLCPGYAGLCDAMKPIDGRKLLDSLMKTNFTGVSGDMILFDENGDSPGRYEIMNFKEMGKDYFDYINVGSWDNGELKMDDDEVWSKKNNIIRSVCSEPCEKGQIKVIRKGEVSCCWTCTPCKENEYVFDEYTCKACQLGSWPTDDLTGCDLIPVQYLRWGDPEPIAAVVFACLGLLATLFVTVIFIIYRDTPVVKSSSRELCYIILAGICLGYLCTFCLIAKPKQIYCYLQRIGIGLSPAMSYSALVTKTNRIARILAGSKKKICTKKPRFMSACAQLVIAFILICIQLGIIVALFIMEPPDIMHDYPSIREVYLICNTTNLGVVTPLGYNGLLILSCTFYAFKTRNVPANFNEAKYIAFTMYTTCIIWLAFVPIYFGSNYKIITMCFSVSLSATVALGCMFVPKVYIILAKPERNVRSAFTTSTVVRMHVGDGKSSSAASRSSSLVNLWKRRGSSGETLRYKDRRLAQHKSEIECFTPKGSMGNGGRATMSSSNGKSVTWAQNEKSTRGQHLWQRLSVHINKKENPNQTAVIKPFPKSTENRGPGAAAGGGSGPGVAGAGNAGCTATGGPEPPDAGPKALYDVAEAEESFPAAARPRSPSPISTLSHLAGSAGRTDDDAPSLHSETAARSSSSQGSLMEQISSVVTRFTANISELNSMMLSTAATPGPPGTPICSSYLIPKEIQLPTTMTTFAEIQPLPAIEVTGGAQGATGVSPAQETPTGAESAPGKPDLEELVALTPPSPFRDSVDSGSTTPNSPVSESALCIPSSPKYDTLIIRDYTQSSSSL
Chain of mGlu4 (Q14833 33-912): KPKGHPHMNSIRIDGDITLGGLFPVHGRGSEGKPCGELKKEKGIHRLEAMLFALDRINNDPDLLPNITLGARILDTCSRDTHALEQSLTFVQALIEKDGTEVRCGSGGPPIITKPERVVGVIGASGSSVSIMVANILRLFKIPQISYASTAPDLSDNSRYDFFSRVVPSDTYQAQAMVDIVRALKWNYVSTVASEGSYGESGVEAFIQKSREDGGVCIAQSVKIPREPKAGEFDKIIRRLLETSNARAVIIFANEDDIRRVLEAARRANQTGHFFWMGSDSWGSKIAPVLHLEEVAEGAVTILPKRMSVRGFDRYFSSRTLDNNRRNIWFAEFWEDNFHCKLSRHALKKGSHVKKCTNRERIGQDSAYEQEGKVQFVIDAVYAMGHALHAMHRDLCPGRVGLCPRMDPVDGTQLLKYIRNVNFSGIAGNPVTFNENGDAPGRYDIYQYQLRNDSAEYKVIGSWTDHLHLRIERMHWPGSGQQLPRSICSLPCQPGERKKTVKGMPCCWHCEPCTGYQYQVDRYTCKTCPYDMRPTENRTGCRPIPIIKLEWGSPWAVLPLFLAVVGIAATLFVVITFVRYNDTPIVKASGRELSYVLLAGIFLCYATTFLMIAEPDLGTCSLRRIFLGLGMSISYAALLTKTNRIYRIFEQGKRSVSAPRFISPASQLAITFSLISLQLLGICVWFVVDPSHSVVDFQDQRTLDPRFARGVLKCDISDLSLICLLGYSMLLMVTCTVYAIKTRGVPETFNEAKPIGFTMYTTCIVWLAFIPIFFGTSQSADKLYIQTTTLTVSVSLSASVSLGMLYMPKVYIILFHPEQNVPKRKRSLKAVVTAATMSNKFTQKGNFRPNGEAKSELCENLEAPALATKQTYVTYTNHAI
Chain of mGlu3 (Q14832 23-879): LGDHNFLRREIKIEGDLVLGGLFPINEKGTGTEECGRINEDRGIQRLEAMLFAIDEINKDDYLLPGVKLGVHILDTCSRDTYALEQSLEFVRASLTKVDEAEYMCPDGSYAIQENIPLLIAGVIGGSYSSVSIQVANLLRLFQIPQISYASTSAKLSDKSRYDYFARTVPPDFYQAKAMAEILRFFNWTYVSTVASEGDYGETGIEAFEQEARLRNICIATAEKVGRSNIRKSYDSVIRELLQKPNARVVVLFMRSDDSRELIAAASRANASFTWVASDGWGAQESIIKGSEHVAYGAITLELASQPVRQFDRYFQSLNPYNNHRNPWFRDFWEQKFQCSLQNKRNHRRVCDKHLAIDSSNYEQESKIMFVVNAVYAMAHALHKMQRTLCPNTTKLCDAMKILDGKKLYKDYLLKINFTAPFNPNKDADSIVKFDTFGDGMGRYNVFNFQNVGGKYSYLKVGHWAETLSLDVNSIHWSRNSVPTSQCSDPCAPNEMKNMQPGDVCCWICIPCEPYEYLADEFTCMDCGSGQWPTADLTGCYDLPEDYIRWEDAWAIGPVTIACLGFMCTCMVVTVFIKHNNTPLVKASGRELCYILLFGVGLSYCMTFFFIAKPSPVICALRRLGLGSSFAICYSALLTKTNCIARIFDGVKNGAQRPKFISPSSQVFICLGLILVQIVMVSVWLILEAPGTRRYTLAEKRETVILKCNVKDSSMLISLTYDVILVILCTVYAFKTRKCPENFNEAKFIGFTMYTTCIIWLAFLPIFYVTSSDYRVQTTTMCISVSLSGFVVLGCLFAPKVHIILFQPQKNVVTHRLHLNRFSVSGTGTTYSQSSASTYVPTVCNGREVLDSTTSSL
Chain of mGlu1 (Q13255 19-1194): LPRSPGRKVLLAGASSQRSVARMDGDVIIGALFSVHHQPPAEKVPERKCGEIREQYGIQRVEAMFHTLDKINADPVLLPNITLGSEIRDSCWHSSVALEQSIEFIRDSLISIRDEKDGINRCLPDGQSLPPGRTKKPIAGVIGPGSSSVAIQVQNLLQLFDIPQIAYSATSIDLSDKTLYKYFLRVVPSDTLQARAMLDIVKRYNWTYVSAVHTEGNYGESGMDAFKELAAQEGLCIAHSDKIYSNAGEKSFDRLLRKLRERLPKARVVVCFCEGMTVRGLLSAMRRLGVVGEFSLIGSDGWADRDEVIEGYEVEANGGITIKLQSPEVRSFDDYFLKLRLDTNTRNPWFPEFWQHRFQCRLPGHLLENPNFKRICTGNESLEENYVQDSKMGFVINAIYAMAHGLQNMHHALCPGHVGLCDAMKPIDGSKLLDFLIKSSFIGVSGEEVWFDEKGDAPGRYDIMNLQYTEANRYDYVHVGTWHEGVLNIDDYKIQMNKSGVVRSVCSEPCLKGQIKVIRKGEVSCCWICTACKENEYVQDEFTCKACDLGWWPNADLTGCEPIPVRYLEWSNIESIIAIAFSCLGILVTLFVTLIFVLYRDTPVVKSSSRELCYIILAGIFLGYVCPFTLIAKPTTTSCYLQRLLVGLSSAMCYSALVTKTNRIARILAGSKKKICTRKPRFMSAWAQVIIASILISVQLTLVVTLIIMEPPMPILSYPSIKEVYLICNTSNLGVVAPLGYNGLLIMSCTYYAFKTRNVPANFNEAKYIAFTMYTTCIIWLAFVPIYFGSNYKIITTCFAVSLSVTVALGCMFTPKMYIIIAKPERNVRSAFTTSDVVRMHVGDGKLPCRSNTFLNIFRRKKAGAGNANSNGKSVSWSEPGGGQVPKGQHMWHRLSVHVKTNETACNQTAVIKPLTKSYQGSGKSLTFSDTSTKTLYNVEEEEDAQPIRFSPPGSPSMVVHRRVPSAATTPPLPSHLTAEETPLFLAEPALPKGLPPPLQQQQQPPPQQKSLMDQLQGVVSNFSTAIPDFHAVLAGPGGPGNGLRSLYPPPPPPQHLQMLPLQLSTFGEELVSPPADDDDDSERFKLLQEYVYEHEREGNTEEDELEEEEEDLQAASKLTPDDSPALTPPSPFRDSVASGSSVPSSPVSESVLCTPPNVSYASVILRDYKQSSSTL

IC50/EC50 (nM): EC50 [1]: 21.1 nM and 21 nM
SMILES: CNc1ncc(C#Cc2cccc(C)c2)cn1 [16c]

mGlu5 activity in words [1]: inactive
SMILES: Cc1ccc(C#Cc2ncccn2)cc1 [17c]

SMILES: O=C(c1ccc(F)cc1)N1CCC[C@H](c2nc(-c3ccc(F)cc3)no2)C1 [compound 7, reference compound]
mode of mGlu5 pharmacology in words [2]: ago-potentiators
efficacy in amphetamine-induced hyperlocomotion model [3]: robust efficacy

IC50/EC50 (nM): IC50 [1]: 21 nM
SMILES: CCOc1ncc(C#Cc2cccc(C)c2)cn1 [16a]

mGlu5 activity in words [1]: weak mGlu5 PAM
SMILES: CNc1ncc(C#Cc2ccc(C)cc2)cn1 [16f]

IC50/EC50 (nM): EC50 [1]: 247 nM
SMILES: CC(C)(C)c1ncc(C#Cc2ccccc2)cn1 [16e]

SMILES: Cc1ccc(C#Cc2cncnc2)cc1 [compound 10]
IC50/EC50 (nM): EC50 ([2]; PAM, table value of earlier compound): 3,300±290 nM
Fold Shift ([2]; mGlu5 PAM): 4.2 fold
efficacy, % of glutamate max ([2]; mGlu5 PAM): 99%

SMILES: N#Cc1cccc(C(=O)Nc2cc(-c3ccccc3)nn2-c2ccccc2)c1 [compound 6, reference compound]
mode of mGlu5 pharmacology in words [2]: ago-potentiators
efficacy in amphetamine-induced hyperlocomotion model [3]: robust efficacy

IC50/EC50 (nM): EC50 [1]: 120 nM
SMILES: CSc1ncc(C#Cc2ccccc2)cn1 [16d]

mGlu5 activity in words [1]: pure mGlu5 PAM
IC50/EC50 (nM): EC50 [1]: 14.3 nM
activity in the absence of glutamate (agonism) ([1]; no glutamate): does not activate mGlu5
SMILES: CNc1ncc(C#Cc2ccccc2)cn1 [16b]
reversal of amphetamine-induced hyperlocomotion ([4]; i.p. 3, 10 or 30 mg/kg thirty minutes prior to s.c. 1 mg/kg amphetamine, vehicle 10% Tween 80): significant reversal noted at the 30 mg/kg dose; also recorded: dose-dependent manner
effect of compound/vehicle alone on locomotion (sedation) ([4]; without amphetamine): no effect

selectivity vs. mGlu7 [5]: > 10 µM
IC50/EC50 (nM): IC50 [1]: 10.8 ± 2.7 nM
selectivity vs. mGlu8 [6]: > 10 µM
selectivity vs. mGlu3 [8]: > 10 µM
selectivity vs. mGlu1 [9]: > 10 µM
selectivity vs. mGlu4 [10]: > 10 µM
selectivity vs. mGlu2 [11]: > 10 µM
SMILES: Cc1cccc(C#Cc2ncccn2)c1 [17b]
unpunished responding [7]: no significant effect on unpunished responding; also recorded: did not change significantly at any of the doses tested
punished responding vs vehicle ([7]; p < 0.05 Newman-Keul): both the 10 and 30 mg/kg doses in the punished component of the schedule differed significantly from vehicle; also recorded: significantly greater number of responses than animals tested on vehicle
